Some test systems named below: NCI-H226; SK-MEL-2; M14; HL-60; SNB-75; CCRF-CEM; HOP-18; Malme-3M; DMS-273; LXFL 529; TK-10; M19-MEL; HCC 2998; MOLT-4; T47D; MDA-MB-435; Hs-578T; MDA-MB-231; DU-145; MCF7.
Holding throughout (assay): DTP human tumour cell line panel, 48 h

The structures appear in SMILES notation.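 Method: 48-hour compound exposure of cells in 96-well plates, five concentrations, linear interpolation of endpoints. At the GI50, growth is halved.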 Calls of active or inactive are those of the source. Cut-off read from the data, not from the text of the source: active = GI50 up to about 1.1 µM and inactive = higher. Some results are limits rather than exact numbers.

A word on the GI50: it is the concentration that inhibits growth by half. For the molecule `Nc1nc2[nH]cnc2c(=O)[nH]1`, the GI50 in the assay on NCI-H226 was > 100 µM (inactive); with SK-MEL-2, > 100 µM (inactive); in the assay on M14, > 100 µM (inactive); in the assay with HL-60, > 100 µM (inactive); in the assay with SNB-75, 90.6 µM (inactive); with CCRF-CEM it was > 100 µM (inactive). Moreover, the GI50 in the assay with HOP-18, in the assay with Malme-3M, in the assay with DMS-273, in the assay on LXFL 529, with TK-10 and with M19-MEL was > 100 µM (inactive) in each case.

For the molecule `COC(=O)CCC(=O)Nc1cccc(C(F)(F)F)c1`, the GI50 is > 100 µM (inactive) in the assay on SK-MEL-2; > 100 µM (inactive) in the assay with M14; > 100 µM (inactive) with HL-60; > 74.1 µM (inactive) with SNB-75; > 100 µM (inactive) with CCRF-CEM; > 100 µM (inactive) with HCC 2998. The GI50 in the assay on HOP-18, in the assay with Malme-3M, with DMS-273, in the assay with LXFL 529, in the assay with TK-10 and in the assay on MOLT-4 was > 100 µM (inactive) in each case. The GI50 in the assay on M19-MEL was > 100 µM (inactive).

Regarding `S=C1SCC2CCCN12` (centres undefined), the GI50 in the assay on SK-MEL-2, in the assay on M14, in the assay with HL-60, with SNB-75, with CCRF-CEM and in the assay with HCC 2998 was > 100 µM (inactive) each time. Besides, the GI50 with HOP-18, in the assay on Malme-3M, in the assay on DMS-273, in the assay with LXFL 529, in the assay with TK-10 and with MOLT-4 was > 100 µM (inactive) in each case. Further, the GI50 in the assay on M19-MEL is > 100 µM (inactive).

In the case of `CN1CCc2c1nc(-c1ccc(Cl)cc1)c1c2N(C)CC1`, the GI50 is > 100 µM (inactive) in the assay on SK-MEL-2; 7.71 µM (inactive) in the assay with M14; 10.7 µM (inactive) with HL-60; 29.6 µM (inactive) in the assay on SNB-75; 12 µM (inactive) in the assay on CCRF-CEM; 19.4 µM (inactive) in the assay with HCC 2998. The GI50 with HOP-18 is < 0.01 µM (active); in the assay on Malme-3M, > 100 µM (inactive); with DMS-273, 14 µM (inactive); in the assay on LXFL 529, 20.1 µM (inactive); in the assay with TK-10, 29.2 µM (inactive); with MOLT-4, 6.28 µM (inactive). Moreover, the GI50 in the assay on M19-MEL was 9.14 µM (inactive).

For `COc1ccc2c(c1)c(Cc1c(C)n(C)c3ccc(OC)cc13)c(C)n2C`, the GI50 in the assay with NCI-H226, in the assay on SK-MEL-2, in the assay on M14, in the assay on HL-60, in the assay with SNB-75 and in the assay on CCRF-CEM was > 100 µM (inactive) each time. The GI50 in the assay on HOP-18, in the assay on Malme-3M, in the assay on DMS-273, with LXFL 529, with TK-10 and in the assay on MOLT-4 was > 100 µM (inactive) throughout. Also, the GI50 in the assay on M19-MEL is > 100 µM (inactive).

Consider `Cc1cc(=O)cc2sc3c(C)cccc3nc1-2`, for which the GI50 is 17.7 µM (inactive) with SK-MEL-2; 21.8 µM (inactive) with M14; 18.9 µM (inactive) with HL-60; 69.5 µM (inactive) in the assay with SNB-75; 15.4 µM (inactive) in the assay on CCRF-CEM; 51.4 µM (inactive) in the assay with HCC 2998. Also, the GI50 with HOP-18 was 41.9 µM (inactive); with Malme-3M, 92.7 µM (inactive); in the assay with DMS-273, 83.6 µM (inactive); in the assay on LXFL 529, 12.2 µM (inactive); in the assay on TK-10, 32.7 µM (inactive); with MOLT-4, 14.4 µM (inactive). In addition, the GI50 in the assay with M19-MEL is 19.5 µM (inactive).

As to `OCC12C3C4C1C1C2C3C41CO` (centres undefined), the GI50 in the assay with NCI-H226, with M14, in the assay with CCRF-CEM, in the assay on HCC 2998, in the assay on HOP-18 and with Malme-3M was > 100 µM (inactive) in each case. Besides, the GI50 in the assay on LXFL 529, with TK-10, with MOLT-4 and in the assay with M19-MEL was > 100 µM (inactive) each time.

With `COc1ccc(/C(Cl)=C(\C=O)c2ccc([N+](=O)[O-])cc2)cc1`, the GI50 in the assay on NCI-H226 is 14.1 µM (inactive); with SK-MEL-2, 6.98 µM (inactive); in the assay on M14 it was 11.8 µM (inactive); with HL-60, 3.08 µM (inactive); in the assay with SNB-75, 5.35 µM (inactive); with CCRF-CEM, 4.1 µM (inactive). Moreover, the GI50 is 21 µM (inactive) in the assay with HCC 2998; 34.9 µM (inactive) with HOP-18; 15.6 µM (inactive) with Malme-3M; 20 µM (inactive) in the assay with DMS-273; 3.27 µM (inactive) in the assay on LXFL 529; 30.1 µM (inactive) in the assay on TK-10. Also, in the assay on MOLT-4, the GI50 was 2.42 µM (inactive).

Take `CCCCCC/C=C1\CCC(CN2CCOCC2)C1=O` (centres undefined): the GI50 in the assay on NCI-H226 was 16 µM (inactive); in the assay with SK-MEL-2 it was 18.7 µM (inactive); in the assay on M14 it was 14.6 µM (inactive); in the assay on HL-60, 2.77 µM (inactive); in the assay on SNB-75 it was 21 µM (inactive); in the assay on CCRF-CEM, 3.24 µM (inactive). For the same molecule, the GI50 in the assay on HCC 2998 was 19.2 µM (inactive); in the assay on HOP-18, 0.807 µM (active); with Malme-3M, 16.3 µM (inactive); in the assay on DMS-273, 15.9 µM (inactive); with LXFL 529, 3.3 µM (inactive); with TK-10, 13.4 µM (inactive). Besides, the GI50 in the assay with MOLT-4 is 5.26 µM (inactive).

As to `COc1cccc2c1C(=O)c1c(O)c3c(c(O)c1C2=O)C[C@@](O)(C(=O)CO)CC3OC1CC(NCCOCC(OC(C)=O)OC(C)=O)C(O)C(C)O1` (some centres undefined), the GI50 with NCI-H226 was < 0.01 µM (active); in the assay on SK-MEL-2 it was < 0.01 µM (active); with M14, < 0.01 µM (active); with HL-60, < 0.01 µM (active); in the assay on SNB-75, < 0.01 µM (active); in the assay with CCRF-CEM, 0.00766 µM (active). For the same molecule, the GI50 in the assay with HCC 2998, in the assay on HOP-18, in the assay on Malme-3M, in the assay on LXFL 529, with TK-10 and in the assay with MOLT-4 was < 0.01 µM (active) in each case. Further, the GI50 in the assay with M19-MEL was < 0.01 µM (active).

Take `C[C@@]1(CO)[C@H](O)CC[C@@]2(C)[C@H]1CC[C@H]1C[C@@H]3C[C@@]12CC[C@@]3(O)COC(=O)CN`: the GI50 with T47D was 11.4 µM (inactive); with MDA-MB-435, 11.6 µM (inactive); in the assay with SK-MEL-2, 64.9 µM (inactive); with M14, 5.15 µM (inactive); in the assay with HL-60 it was 0.293 µM (active); with CCRF-CEM, 0.67 µM (active). Further, the GI50 was 53.1 µM (inactive) in the assay with Hs-578T; 34.8 µM (inactive) in the assay with MDA-MB-231; 4.23 µM (inactive) in the assay with HCC 2998; > 76 µM (inactive) in the assay with HOP-18; 2.67 µM (inactive) in the assay with DU-145; 0.486 µM (active) in the assay with DMS-273. Further, the GI50 was > 100 µM (inactive) in the assay on LXFL 529, 56.5 µM (inactive) in the assay with TK-10 and 2.23 µM (inactive) in the assay on MOLT-4.

Regarding `Cc1cc(=O)n(-c2cc3cccccc-3n2)[nH]1`, the GI50 with NCI-H226 is 12.1 µM (inactive); with M14, 4.42 µM (inactive); with HL-60, 3.48 µM (inactive); in the assay with SNB-75, 3.76 µM (inactive); in the assay on CCRF-CEM, 4.13 µM (inactive); in the assay with HCC 2998, 12.1 µM (inactive). For the same molecule, the GI50 with HOP-18 was 3.95 µM (inactive); in the assay with Malme-3M, 3.76 µM (inactive); with LXFL 529, 3.79 µM (inactive); with TK-10, 7.31 µM (inactive); with MOLT-4, 4.3 µM (inactive); with M19-MEL it was 3.95 µM (inactive).

For `CS(=O)(=O)c1nc(Cl)c(Cl)c(C#N)c1Cl`, the GI50 in the assay on NCI-H226 was 13.2 µM (inactive); in the assay on T47D, 2.16 µM (inactive); in the assay with MCF7 it was 3.42 µM (inactive); in the assay with MDA-MB-435, 2.01 µM (inactive); with SK-MEL-2, 5.37 µM (inactive); with M14, 1.91 µM (inactive). Also, the GI50 is 1.15 µM (inactive) with HL-60; 9.89 µM (inactive) in the assay with SNB-75; 0.998 µM (active) in the assay with CCRF-CEM; 4.34 µM (inactive) with Hs-578T; 0.619 µM (active) in the assay on MDA-MB-231; 14.2 µM (inactive) in the assay on HCC 2998. Besides, the GI50 was 6.1 µM (inactive) in the assay with HOP-18; 2.3 µM (inactive) in the assay on Malme-3M; 11.4 µM (inactive) with DU-145; 6.68 µM (inactive) in the assay with DMS-273; 1.57 µM (inactive) in the assay on LXFL 529; 3.18 µM (inactive) in the assay on TK-10. The GI50 with MOLT-4 was 0.838 µM (active).

Regarding `NC1CCC[C@H]1O` (some centres undefined), the GI50 with NCI-H226, with SK-MEL-2, in the assay on M14, with HL-60, with SNB-75 and with CCRF-CEM was > 100 µM (inactive) in each case. Moreover, the GI50 with HCC 2998, in the assay with HOP-18, in the assay with Malme-3M, with DMS-273, in the assay with TK-10 and in the assay on MOLT-4 was > 100 µM (inactive) each time. The GI50 in the assay with M19-MEL is > 100 µM (inactive).

On to `CCCC/C=C1\CCC(CN2CCCCC2)C1=O` (centres undefined), for which the GI50 with NCI-H226 was 26.5 µM (inactive); in the assay on T47D, > 100 µM (inactive); in the assay on MCF7 it was > 100 µM (inactive); with MDA-MB-435, > 100 µM (inactive); in the assay with SK-MEL-2, > 39 µM (inactive); in the assay on M14, 10.1 µM (inactive). For the same molecule, the GI50 with HL-60 is 7.6 µM (inactive); in the assay on SNB-75, > 100 µM (inactive); in the assay with CCRF-CEM it was 7.73 µM (inactive); in the assay with Hs-578T it was > 100 µM (inactive); in the assay on MDA-MB-231, > 100 µM (inactive); with HCC 2998, 8.67 µM (inactive). Besides, the GI50 in the assay with HOP-18 was 8.73 µM (inactive); in the assay with Malme-3M, 8.55 µM (inactive); with DU-145 it was > 100 µM (inactive); with LXFL 529, 1.7 µM (inactive); in the assay on TK-10 it was 12.4 µM (inactive); in the assay on MOLT-4, 8.38 µM (inactive). For the same molecule, the GI50 with M19-MEL is 8.36 µM (inactive).

For the origin of these results see ChEMBL document CHEMBL1201862, “PubChem BioAssay data set” (2004).
